Key:
[1] = system: histone H3K23 acetylation (KATE mediated) in U2OS cells; assay: Histone H3 Lysine 23 Acetylation Biomarker Assay (U2OS); type: cell-based; conditions: Homo sapiens, 96 well, 24 hours incubation
In short: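 U2OS cells were treated with compound for 24 h, then fixed and immunostained for H3K23ac with Hoechst nuclear counterstain. Per-nucleus Alexa647 intensity was quantified by high-content imaging and converted to % inhibition against DMSO and 10 μM reference-inhibitor controls. IC50 was derived from a four-parameter logistic fit.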

HBO-KAT7 [2] = biological target: T1, HBO-KAT7 (Homo sapiens, UniProt O95251); assay: Acetyltransferase biochemical assay (AlphaScreen), KAT7; conditions: Table 3 (HBO-KAT7); 0.4 μM Acetyl coenzyme A, histone H3.1, 40 nM enzyme
T1 construct: encoding amino acid residues 325 to 611 (Uniprot 095251-1) of human KAT7; made in house; host or cells: E. coli BL21 DE3 RIL
T1 sequence (O95251 with tags, fused parts or gaps): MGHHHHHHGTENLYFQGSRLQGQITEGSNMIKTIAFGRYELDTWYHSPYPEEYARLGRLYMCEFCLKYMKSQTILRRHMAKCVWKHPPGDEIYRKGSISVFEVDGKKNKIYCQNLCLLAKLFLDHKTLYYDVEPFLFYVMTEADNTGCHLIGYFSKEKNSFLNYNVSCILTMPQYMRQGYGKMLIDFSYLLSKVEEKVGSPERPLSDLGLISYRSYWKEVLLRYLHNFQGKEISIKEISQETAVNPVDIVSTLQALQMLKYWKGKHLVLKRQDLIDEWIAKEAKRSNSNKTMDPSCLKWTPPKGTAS

MOZ-KAT6A = biological target: T2, MOZ-KAT6A (Homo sapiens, UniProt Q92794, A567V); assay: Revised Acetyltransferase Biochemical Assay, KAT6A; conditions: Table 8 (MOZ-KAT6A), 1 μM Acetyl coenzyme A
T2 construct: encoding amino acid residues 507 to 778 (Uniprot Q92794-1) of human KAT6A; made in house; host or cells: E. coli BL21 DE3
T2 sequence (Q92794 507-778 A567V limits assumed): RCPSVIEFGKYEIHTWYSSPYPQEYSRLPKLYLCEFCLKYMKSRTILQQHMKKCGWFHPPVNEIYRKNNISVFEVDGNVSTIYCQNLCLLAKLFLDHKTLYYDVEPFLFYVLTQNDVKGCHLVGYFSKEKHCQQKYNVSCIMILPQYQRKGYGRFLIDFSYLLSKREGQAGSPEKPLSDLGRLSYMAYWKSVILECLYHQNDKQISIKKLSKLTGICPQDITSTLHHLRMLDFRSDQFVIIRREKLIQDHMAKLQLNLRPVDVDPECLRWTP

TIP60-KAT5 = biological target: T3, TIP60-KAT5 (Homo sapiens, UniProt Q92993); assay: Acetyltransferase biochemical assay (AlphaScreen), KAT5; conditions: Table 1 (TIP60-KAT5); 0.4 μM Acetyl coenzyme A, histone H4, 10 nM enzyme
T3 construct: encoding amino acid residues 2 to 461 (Uniprot Q92993-2) of human KAT5 isoform; made in house; host or cells: E. coli BL21 DE3
T3 sequence (Q92993 2-461 isoform Q92993-2): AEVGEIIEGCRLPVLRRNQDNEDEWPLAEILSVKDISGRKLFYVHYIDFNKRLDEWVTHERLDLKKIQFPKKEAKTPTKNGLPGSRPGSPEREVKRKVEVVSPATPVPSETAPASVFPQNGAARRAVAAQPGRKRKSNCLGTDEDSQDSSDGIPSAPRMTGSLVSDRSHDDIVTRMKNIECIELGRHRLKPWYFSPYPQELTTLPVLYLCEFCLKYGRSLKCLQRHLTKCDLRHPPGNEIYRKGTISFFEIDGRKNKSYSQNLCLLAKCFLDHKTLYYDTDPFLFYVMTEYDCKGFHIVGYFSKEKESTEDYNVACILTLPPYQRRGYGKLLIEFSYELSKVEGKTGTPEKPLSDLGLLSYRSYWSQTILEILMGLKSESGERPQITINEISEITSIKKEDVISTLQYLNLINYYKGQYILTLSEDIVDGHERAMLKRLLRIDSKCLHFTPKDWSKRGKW

HBO-KAT7 [3] = biological target: T1, HBO-KAT7; assay: Revised Acetyltransferase Biochemical Assay, KAT7; conditions: Table 9 (HBO-KAT7), 1 μM Acetyl coenzyme A
QKF-KAT6B = biological target: T4, QKF-KAT6B (Homo sapiens, UniProt Q8WYB5); assay: Acetyltransferase biochemical assay (AlphaScreen), KAT6B; conditions: Table 5 (QKF-KAT6B); 0.4 μM Acetyl coenzyme A, histone H3.1, 8 nM enzyme
T4 construct: purchased SignalChem K315-381BG
T4 sequence (Q8WYB5 whole entry): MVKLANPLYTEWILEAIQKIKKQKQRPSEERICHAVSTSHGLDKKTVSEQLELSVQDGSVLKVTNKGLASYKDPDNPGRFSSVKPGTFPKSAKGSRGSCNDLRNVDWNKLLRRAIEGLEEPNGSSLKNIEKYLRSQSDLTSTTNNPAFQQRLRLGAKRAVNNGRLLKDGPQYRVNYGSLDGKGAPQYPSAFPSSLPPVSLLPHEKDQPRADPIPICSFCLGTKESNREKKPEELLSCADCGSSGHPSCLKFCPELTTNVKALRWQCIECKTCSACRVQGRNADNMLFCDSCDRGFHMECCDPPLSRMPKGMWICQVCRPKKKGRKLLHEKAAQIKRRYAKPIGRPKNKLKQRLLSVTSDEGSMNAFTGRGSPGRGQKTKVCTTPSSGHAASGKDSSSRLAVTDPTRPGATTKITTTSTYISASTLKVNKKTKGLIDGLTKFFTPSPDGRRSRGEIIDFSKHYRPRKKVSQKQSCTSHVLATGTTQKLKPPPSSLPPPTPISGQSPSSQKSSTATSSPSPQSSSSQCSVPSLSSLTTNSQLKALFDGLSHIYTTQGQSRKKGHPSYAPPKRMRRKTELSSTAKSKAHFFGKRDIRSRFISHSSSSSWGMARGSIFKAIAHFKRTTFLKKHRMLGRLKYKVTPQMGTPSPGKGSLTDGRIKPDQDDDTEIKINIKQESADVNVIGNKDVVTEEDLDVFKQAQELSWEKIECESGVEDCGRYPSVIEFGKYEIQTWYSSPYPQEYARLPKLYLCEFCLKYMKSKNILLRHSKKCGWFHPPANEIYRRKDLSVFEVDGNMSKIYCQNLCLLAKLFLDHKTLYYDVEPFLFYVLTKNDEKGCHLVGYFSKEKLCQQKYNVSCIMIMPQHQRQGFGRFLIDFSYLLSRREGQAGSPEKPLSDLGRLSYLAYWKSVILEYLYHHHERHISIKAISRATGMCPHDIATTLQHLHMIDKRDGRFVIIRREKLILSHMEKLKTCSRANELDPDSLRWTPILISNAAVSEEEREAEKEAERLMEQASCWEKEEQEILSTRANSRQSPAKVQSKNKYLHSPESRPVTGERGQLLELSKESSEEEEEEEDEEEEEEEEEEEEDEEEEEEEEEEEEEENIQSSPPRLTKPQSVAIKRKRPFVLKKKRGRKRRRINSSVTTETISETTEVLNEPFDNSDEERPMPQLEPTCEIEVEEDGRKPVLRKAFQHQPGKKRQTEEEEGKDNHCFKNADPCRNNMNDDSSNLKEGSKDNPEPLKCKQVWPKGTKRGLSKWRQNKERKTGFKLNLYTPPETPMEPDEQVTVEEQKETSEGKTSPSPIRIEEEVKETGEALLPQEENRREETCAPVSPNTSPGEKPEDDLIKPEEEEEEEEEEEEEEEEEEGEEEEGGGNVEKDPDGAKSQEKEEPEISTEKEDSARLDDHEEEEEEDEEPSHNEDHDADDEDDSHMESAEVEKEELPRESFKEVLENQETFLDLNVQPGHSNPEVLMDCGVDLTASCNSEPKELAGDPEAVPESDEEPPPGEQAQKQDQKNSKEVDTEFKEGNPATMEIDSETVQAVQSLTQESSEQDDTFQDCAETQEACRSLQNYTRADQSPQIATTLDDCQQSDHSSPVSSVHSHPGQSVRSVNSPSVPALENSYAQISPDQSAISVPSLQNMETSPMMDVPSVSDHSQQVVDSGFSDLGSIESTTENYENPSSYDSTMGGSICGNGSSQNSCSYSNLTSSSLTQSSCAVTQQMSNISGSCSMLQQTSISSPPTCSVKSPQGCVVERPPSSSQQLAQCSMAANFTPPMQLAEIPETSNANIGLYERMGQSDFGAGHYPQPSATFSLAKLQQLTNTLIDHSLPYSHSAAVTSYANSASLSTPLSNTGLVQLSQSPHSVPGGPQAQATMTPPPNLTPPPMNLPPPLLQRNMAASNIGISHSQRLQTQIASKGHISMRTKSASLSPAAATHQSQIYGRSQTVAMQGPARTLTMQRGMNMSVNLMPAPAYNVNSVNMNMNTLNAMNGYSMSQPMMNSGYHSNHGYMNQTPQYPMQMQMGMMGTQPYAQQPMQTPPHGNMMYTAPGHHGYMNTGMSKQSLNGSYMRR

SMILES | IC50 [1] [nM] | IC50 (HBO-KAT7 [2]) [nM] | IC50 (MOZ-KAT6A) [nM] | IC50 (TIP60-KAT5) [nM] | IC50 (HBO-KAT7 [3]) [nM] | IC50 (QKF-KAT6B) [nM]
O=C(NCC(c1ccccc1)c1ncco1)C1=Nc2ccc(Br)cc2S(=O)(=O)N1 (stereo not drawn) [Example 1, 7-Bromo-N-(2-(oxazol-2-yl)-2-phenylethyl)-2H-benzo[e][1,2,4]thiadiazine-3-carboxamide 1,1-dioxide] | 64 | 63.8 | 5 | 286 | 76 | 
O=C(NCC(c1ccccc1)c1ncco1)C1=Nc2ccccc2S(=O)(=O)N1 (stereo not drawn) [Example 46, N-(2-(oxazol-2-yl)-2-phenylethyl)-2H-benzo[e][1,2,4]thiadiazine-3-carboxamide 1,1-dioxide] | 178 | 2650 | 64 | 9710 | 1080 | 122
O=C(NCCc1ccccc1-n1nccn1)C1=Nc2ccc(I)cc2S(=O)(=O)N1 [Example 60, N-(2-(2H-1,2,3-triazol-2-yl)phenethyl)-7-iodo-2H-benzo[e][1,2,4]thiadiazine-3-carboxamide 1,1-dioxide] | 1420 | 555 | 10 | 327 | 201 | 
O=C(NCCc1ccccc1OC(F)F)C1=Nc2ccc(I)cc2S(=O)(=O)N1 [Example 91] | 7690 | 339 | 24 | 209 | 74 | 

From patent publication US20210380548A1, “Fused [1,2,4]Thiadiazine Derivatives Which Act as KAT Inhibitors of the MYST Family” (CTxT Pty Limited, priority 2017, published 2021)
